Assay results from PMC4823954, “From fighting depression to conquering tumors: a novel tricyclic thiazepine compound as a tubulin polymerization inhibitor” (Cell Death & Disease, 2016).

Experiments:
Test in all cases: KINOMEscan
Type in all cases: binding
Conditions in all cases: read-out: % Ctrl
ACVR2B = target: T1, ACVR2B (Homo sapiens, UniProt Q13705)
T1 construct: purchased DiscoveRx KINOMEscan
Method in brief: (§1)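 Competition binding panel of 442 non-mutant kinases: test compound at 5 and 10 μM competed with an active-site-directed ligand for 1 h with shaking. Bound kinase was eluted with 0.5 μM ligand and quantified by qPCR; %Ctrl = (compound − positive control)/(DMSO − positive control) × 100, lower meaning tighter binding.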

ANKK1 = target: T2, ANKK1 (Homo sapiens, UniProt Q8NFD2)
T2 construct: purchased DiscoveRx KINOMEscan
Method in brief: as §1

AURKC = target: T3, AURKC (Homo sapiens, UniProt Q9UQB9)
T3 construct: purchased DiscoveRx KINOMEscan
T3 sequence (Q9UQB9 whole entry): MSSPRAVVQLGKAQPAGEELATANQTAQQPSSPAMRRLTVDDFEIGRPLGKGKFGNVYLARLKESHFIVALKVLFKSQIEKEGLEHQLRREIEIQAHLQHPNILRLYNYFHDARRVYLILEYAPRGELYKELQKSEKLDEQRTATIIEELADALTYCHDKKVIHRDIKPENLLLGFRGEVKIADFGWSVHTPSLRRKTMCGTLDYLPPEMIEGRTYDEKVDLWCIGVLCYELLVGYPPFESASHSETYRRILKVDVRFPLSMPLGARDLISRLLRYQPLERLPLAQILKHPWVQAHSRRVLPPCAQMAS
Method in brief: as §1

BMPR1B = target: T4, BMPR1B (Homo sapiens, UniProt O00238)
T4 construct: purchased DiscoveRx KINOMEscan
T4 sequence (O00238 14-502): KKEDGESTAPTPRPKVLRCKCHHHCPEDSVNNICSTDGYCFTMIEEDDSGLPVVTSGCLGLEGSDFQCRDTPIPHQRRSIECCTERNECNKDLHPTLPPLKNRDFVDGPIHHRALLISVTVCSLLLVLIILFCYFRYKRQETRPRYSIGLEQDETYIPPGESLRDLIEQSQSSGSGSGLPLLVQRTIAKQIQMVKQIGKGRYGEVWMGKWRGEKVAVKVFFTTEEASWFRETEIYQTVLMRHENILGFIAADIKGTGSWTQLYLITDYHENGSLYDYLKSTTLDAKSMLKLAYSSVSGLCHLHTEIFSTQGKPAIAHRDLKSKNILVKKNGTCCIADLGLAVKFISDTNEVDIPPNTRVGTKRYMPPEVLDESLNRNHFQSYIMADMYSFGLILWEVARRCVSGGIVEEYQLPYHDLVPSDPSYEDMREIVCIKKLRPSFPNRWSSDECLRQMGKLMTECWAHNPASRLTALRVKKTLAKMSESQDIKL
Method in brief: as §1

CAMK2A = target: T5, CAMK2A (Homo sapiens, UniProt Q9UQM7)
T5 construct: purchased DiscoveRx KINOMEscan
T5 sequence (Q9UQM7 whole entry): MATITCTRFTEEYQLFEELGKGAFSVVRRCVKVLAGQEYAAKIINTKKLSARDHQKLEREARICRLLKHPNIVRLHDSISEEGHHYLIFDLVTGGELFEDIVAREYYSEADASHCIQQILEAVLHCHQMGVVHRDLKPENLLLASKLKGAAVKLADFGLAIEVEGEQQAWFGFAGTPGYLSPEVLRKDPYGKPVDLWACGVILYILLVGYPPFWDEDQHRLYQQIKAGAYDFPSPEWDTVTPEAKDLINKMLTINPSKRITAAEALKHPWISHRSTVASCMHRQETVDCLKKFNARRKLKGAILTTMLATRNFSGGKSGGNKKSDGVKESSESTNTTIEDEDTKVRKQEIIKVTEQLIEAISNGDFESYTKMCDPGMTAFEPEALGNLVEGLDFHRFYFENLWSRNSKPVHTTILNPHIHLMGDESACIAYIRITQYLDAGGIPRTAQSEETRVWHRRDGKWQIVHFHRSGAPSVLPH
Method in brief: as §1

CAMK2D = target: T6, CAMK2D (Homo sapiens, UniProt Q13557)
T6 construct: purchased DiscoveRx KINOMEscan
T6 sequence (Q13557 whole entry): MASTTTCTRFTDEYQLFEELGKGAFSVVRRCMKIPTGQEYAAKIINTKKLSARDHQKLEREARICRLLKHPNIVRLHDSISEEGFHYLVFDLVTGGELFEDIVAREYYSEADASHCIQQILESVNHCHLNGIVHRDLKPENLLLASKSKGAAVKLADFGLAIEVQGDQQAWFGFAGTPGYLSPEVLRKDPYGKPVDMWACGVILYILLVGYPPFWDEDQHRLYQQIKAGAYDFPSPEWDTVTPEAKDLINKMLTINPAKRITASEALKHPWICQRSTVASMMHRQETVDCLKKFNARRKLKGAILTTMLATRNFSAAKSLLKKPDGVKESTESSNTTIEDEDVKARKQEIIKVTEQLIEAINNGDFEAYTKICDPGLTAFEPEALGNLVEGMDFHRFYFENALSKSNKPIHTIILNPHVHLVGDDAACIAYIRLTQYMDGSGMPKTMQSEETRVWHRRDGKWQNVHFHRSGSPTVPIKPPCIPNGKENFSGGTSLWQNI
Method in brief: as §1

CSNK1D = target: T7, CSNK1D (Homo sapiens, UniProt P48730)
T7 construct: purchased DiscoveRx KINOMEscan
Method in brief: as §1

DCAMKL3 = target: T8, DCAMKL3 (Homo sapiens, UniProt Q9C098)
T8 construct: purchased DiscoveRx KINOMEscan
Method in brief: as §1

DYRK1A = target: T9, DYRK1A (Homo sapiens, UniProt Q13627)
T9 construct: purchased DiscoveRx KINOMEscan
Method in brief: as §1

EPHB2 = target: T10, EPHB2 (Homo sapiens, UniProt P29323)
T10 construct: purchased DiscoveRx KINOMEscan
Method in brief: as §1

FLT3(R834Q) = target: T11, FLT3(R834Q) (Homo sapiens, UniProt P36888, R834Q)
T11 construct: purchased DiscoveRx KINOMEscan

[1] = target: T12, JAK2(JH1domain-catalytic) (Homo sapiens, UniProt O60674)
T12 construct: JAK2(JH1domain-catalytic); purchased DiscoveRx KINOMEscan
T12 sequence (O60674 840-1132 limits assumed): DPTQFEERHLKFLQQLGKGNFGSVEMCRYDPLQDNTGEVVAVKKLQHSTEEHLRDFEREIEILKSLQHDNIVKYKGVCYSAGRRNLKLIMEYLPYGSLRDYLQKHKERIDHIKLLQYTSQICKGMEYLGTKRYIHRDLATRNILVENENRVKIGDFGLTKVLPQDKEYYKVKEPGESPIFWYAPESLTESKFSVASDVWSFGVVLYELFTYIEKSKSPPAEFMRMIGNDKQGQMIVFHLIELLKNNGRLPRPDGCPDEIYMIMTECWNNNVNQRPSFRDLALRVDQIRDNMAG
Method in brief: as §1

[2] = target: T13, JAK3(JH1domain-catalytic) (Homo sapiens, UniProt P52333)
T13 construct: JAK3(JH1domain-catalytic); purchased DiscoveRx KINOMEscan
Method in brief: as §1

MAPKAPK2 = target: T14, MAPKAPK2 (Homo sapiens, UniProt P49137)
T14 construct: purchased DiscoveRx KINOMEscan
Method in brief: as §1

MELK = target: T15, MELK (Homo sapiens, UniProt Q14680)
T15 construct: purchased DiscoveRx KINOMEscan
Method in brief: as §1

MERTK = target: T16, MERTK (Homo sapiens, UniProt Q12866)
T16 construct: purchased DiscoveRx KINOMEscan
Method in brief: as §1

MRCKA = target: T17, MRCKA (Homo sapiens, UniProt Q5VT25)
T17 construct: purchased DiscoveRx KINOMEscan
Method in brief: as §1

MYO3B = target: T18, MYO3B (Homo sapiens, UniProt Q8WXR4)
T18 construct: purchased DiscoveRx KINOMEscan
T18 sequence (Q8WXR4 whole entry): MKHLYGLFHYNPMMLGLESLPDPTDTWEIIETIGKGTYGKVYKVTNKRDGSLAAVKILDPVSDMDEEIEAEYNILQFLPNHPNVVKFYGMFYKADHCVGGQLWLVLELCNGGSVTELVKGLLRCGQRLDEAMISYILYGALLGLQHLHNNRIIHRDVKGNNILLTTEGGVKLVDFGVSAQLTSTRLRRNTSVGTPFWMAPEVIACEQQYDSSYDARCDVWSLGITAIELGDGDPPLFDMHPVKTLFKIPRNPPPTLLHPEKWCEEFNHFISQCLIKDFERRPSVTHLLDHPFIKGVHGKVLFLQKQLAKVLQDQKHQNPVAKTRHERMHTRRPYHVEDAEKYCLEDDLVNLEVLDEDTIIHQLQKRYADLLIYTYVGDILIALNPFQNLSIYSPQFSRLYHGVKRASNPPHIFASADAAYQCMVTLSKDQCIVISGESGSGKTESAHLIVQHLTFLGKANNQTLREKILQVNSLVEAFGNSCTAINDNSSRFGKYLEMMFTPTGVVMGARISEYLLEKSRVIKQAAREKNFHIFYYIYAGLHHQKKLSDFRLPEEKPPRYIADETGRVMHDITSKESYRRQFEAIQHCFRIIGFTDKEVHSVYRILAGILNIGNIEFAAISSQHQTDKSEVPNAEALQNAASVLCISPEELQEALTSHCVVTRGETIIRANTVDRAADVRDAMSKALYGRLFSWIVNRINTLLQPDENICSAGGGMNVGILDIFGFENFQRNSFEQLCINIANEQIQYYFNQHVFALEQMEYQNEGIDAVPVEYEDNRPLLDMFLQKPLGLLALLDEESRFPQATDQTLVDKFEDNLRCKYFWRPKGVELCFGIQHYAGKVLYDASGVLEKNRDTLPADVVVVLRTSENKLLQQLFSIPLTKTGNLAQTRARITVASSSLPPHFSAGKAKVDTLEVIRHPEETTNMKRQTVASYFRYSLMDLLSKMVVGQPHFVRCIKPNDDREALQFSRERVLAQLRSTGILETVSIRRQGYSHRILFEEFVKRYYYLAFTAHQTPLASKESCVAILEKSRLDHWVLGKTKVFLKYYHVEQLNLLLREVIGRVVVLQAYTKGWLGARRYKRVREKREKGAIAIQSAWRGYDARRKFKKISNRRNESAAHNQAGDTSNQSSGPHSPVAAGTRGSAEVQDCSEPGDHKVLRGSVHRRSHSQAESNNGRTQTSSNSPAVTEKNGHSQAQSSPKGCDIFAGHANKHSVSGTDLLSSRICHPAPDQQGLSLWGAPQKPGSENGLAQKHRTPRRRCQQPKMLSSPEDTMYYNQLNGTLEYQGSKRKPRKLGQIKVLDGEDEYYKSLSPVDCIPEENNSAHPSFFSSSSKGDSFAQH
Method in brief: as §1

PCTK3 = target: T19, PCTK3 (Homo sapiens, UniProt Q07002)
T19 construct: purchased DiscoveRx KINOMEscan
T19 sequence (Q07002 whole entry): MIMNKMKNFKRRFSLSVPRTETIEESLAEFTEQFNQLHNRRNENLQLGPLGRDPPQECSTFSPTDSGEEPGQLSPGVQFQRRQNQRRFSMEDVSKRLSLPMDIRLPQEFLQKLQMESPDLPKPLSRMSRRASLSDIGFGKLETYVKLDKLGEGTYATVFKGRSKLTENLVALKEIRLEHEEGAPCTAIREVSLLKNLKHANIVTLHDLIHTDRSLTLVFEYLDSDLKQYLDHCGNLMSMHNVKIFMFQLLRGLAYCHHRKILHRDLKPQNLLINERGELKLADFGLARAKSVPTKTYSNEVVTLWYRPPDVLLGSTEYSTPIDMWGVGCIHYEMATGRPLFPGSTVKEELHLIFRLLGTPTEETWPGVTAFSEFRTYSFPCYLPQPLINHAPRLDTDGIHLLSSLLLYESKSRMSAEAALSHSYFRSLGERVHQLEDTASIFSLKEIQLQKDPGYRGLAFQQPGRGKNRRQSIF
Method in brief: as §1

PDGFRA = target: T20, PDGFRA (Homo sapiens, UniProt P16234)
T20 construct: purchased DiscoveRx KINOMEscan
Method in brief: as §1

PHKG1 = target: T21, PHKG1 (Homo sapiens, UniProt Q16816)
T21 construct: purchased DiscoveRx KINOMEscan
Method in brief: as §1

PIK3CA(H1047Y) = target: T22, PIK3CA(H1047Y) (Homo sapiens, UniProt P42336, H1047Y)
T22 construct: purchased DiscoveRx KINOMEscan
T22 sequence (P42336 whole entry H1047Y): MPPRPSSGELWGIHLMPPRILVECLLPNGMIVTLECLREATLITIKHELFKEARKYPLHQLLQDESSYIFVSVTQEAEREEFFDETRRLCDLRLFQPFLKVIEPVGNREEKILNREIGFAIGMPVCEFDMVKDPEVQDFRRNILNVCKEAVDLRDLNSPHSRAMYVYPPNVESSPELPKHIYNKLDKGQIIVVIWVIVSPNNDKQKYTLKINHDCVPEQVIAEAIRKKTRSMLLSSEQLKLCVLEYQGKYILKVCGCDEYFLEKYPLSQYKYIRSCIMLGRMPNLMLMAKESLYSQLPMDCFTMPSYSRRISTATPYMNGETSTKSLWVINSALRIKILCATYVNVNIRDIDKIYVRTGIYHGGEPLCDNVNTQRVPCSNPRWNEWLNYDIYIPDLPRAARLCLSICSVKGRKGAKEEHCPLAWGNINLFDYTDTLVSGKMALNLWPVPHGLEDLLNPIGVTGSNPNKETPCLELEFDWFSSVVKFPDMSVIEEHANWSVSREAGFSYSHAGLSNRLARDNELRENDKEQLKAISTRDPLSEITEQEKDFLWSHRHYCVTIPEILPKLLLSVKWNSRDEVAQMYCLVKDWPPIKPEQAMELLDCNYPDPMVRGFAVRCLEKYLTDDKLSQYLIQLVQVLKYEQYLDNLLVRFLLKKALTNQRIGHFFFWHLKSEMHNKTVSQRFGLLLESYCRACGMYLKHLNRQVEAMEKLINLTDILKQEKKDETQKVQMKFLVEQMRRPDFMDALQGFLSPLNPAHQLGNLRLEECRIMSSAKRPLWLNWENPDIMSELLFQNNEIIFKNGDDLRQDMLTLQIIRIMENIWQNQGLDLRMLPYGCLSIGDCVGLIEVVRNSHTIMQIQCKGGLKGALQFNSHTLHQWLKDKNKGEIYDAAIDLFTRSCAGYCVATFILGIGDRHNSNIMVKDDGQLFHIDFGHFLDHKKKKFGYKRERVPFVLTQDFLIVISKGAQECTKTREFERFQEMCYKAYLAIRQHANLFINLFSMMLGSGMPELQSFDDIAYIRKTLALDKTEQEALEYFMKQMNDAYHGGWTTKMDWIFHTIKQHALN

PRKG2 = target: T23, PRKG2 (Homo sapiens, UniProt Q13237)
T23 construct: purchased DiscoveRx KINOMEscan
Method in brief: as §1

SIK2 = target: T24, SIK2 (Homo sapiens, UniProt Q9H0K1)
T24 construct: purchased DiscoveRx KINOMEscan
Method in brief: as §1

SLK = target: T25, SLK (Homo sapiens, UniProt Q9H2G2)
T25 construct: purchased DiscoveRx KINOMEscan
Method in brief: as §1

SRPK3 = target: T26, SRPK3 (Homo sapiens, UniProt Q9UPE1)
T26 construct: purchased DiscoveRx KINOMEscan
Method in brief: as §1

STK36 = target: T27, STK36 (Homo sapiens, UniProt Q9NRP7)
T27 construct: purchased DiscoveRx KINOMEscan
Method in brief: as §1

TRKC = target: T28, TRKC (Homo sapiens, UniProt Q16288)
T28 construct: purchased DiscoveRx KINOMEscan
Method in brief: as §1

WEE1 = target: T29, WEE1 (Homo sapiens, UniProt P30291)
T29 construct: purchased DiscoveRx KINOMEscan
Method in brief: as §1

YSK4 = target: T30, YSK4 (Homo sapiens, UniProt Q56UN5)
T30 construct: purchased DiscoveRx KINOMEscan
Method in brief: as §1

Question: What does the source list for `Cc1ccc(C2=Nc3cccnc3S(=O)(=O)c3ccccc32)cc1` [TBPT, 6-(p-tolyl)benzo[f] pyrido[2,3-b][1,4] thiazepine 11,11-dioxide]?
Answer: remaining binding at 5 µM (ACVR2B; 5 μM): 87%; remaining binding at 10 µM (ACVR2B; 10 μM): 82%; remaining binding at 5 µM (ANKK1; 5 μM): 91%; remaining binding at 10 µM (ANKK1; 10 μM): 72%; remaining binding at 5 µM (AURKC; 5 μM): 85%; remaining binding at 10 µM (AURKC; 10 μM): 96%; remaining binding at 5 µM (BMPR1B; 5 μM): 95%; remaining binding at 10 µM (BMPR1B; 10 μM): 88%; remaining binding at 5 µM (CAMK2A; 5 μM): 100%; remaining binding at 10 µM (CAMK2A; 10 μM): 87%; remaining binding at 5 µM (CAMK2D; 5 μM): 94%; remaining binding at 10 µM (CAMK2D; 10 μM): 100%; remaining binding at 5 µM (CSNK1D; 5 μM): 98%; remaining binding at 10 µM (CSNK1D; 10 μM): 90%; remaining binding at 5 µM (DCAMKL3; 5 μM): 100%; remaining binding at 10 µM (DCAMKL3; 10 μM): 79%; remaining binding at 5 µM (DYRK1A; 5 μM): 88%; remaining binding at 10 µM (DYRK1A; 10 μM): 100%; remaining binding at 5 µM (EPHB2; 5 μM): 91%; remaining binding at 10 µM (EPHB2; 10 μM): 100%; remaining binding at 5 µM (FLT3(R834Q); 5 μM): 89%; remaining binding at 10 µM (FLT3(R834Q); 10 μM): 100%; remaining binding at 5 µM ([1]; 5 μM): 84%; remaining binding at 10 µM ([1]; 10 μM): 98%; remaining binding at 5 µM ([2]; 5 μM): 100%; remaining binding at 10 µM ([2]; 10 μM): 100%; remaining binding at 5 µM (MAPKAPK2; 5 μM): 100%; remaining binding at 10 µM (MAPKAPK2; 10 μM): 100%; remaining binding at 5 µM (MELK; 5 μM): 100%; remaining binding at 10 µM (MELK; 10 μM): 100%; remaining binding at 5 µM (MERTK; 5 μM): 100%; remaining binding at 10 µM (MERTK; 10 μM): 80%; remaining binding at 5 µM (MRCKA; 5 μM): 89%; remaining binding at 10 µM (MRCKA; 10 μM): 99%; remaining binding at 5 µM (MYO3B; 5 μM): 100%; remaining binding at 10 µM (MYO3B; 10 μM): 100%; remaining binding at 5 µM (PCTK3; 5 μM): 82%; remaining binding at 10 µM (PCTK3; 10 μM): 100%; remaining binding at 5 µM (PDGFRA; 5 μM): 100%; remaining binding at 10 µM (PDGFRA; 10 μM): 100%; remaining binding at 5 µM (PHKG1; 5 μM): 100%; remaining binding at 10 µM (PHKG1; 10 μM): 94%; remaining binding at 5 µM (PIK3CA(H1047Y); 5 μM): 95%; remaining binding at 10 µM (PIK3CA(H1047Y); 10 μM): 100%; remaining binding at 5 µM (PRKG2; 5 μM): 88%; remaining binding at 10 µM (PRKG2; 10 μM): 98%; remaining binding at 5 µM (SIK2; 5 μM): 84%; remaining binding at 10 µM (SIK2; 10 μM): 90%; remaining binding at 5 µM (SLK; 5 μM): 100%; remaining binding at 10 µM (SLK; 10 μM): 86%; remaining binding at 5 µM (SRPK3; 5 μM): 100%; remaining binding at 10 µM (SRPK3; 10 μM): 89%; remaining binding at 5 µM (STK36; 5 μM): 84%; remaining binding at 10 µM (STK36; 10 μM): 100%; remaining binding at 5 µM (TRKC; 5 μM): 100%; remaining binding at 10 µM (TRKC; 10 μM): 96%; remaining binding at 5 µM (WEE1; 5 μM): 100%; remaining binding at 10 µM (WEE1; 10 μM): 96%; remaining binding at 5 µM (YSK4; 5 μM): 98%; remaining binding at 10 µM (YSK4; 10 μM): 98%
